Laboratory results: PMC4926326, “Synthesis, Biological Activity, and Apoptotic Properties of NO-Donor/Enmein-Type ent-Kauranoid Hybrids” (International Journal of Molecular Sciences, 2016)
In brackets after ≈: the same amount, converted by molar mass. Read-outs that look alike come from different tables or passages of the source.

What was measured:
[1] = tested on: Monilia albicans (ATCC 10231); assay: Antifungal assay, microbroth dilution MIC; type: cell-based; conditions: Candida albicans, read-out: MIC M. albicans
Description: (§1) The antibacterial activity of NO donor/enmein-type ent-kauranoid hybrids 9a–i against the Gram-negative bacterium Escherichia coli (ATCC 25922), Gram-positive bacterium Staphylococcus aureus (ATCC 29213) and Bacillus subtilis (CMCC 63501), and the fungus Monilia albicans (ATCC 10231) was first disclosed and summarized in Table 1. […] Thus, the introduction of NO-donor substituent groups at the 14-position of enmein-type 6,7-seco-ent-kauranoid could improve antimicrobial activity against S. aureus and B. subtilis.
(§2) The minimal inhibitory concentrations (MICs) were carried out by microbroth dilution method described by the Clinical Laboratory Standards Institute. A stock solution of all the target compounds was prepared with DMSO-medium (1:2), and then graded quantities of the test compounds were diluted with medium. The specified concentration suspension of fungus and bacterium contained approximately 10^3, and 10^5 CFU/mL was added into microtitration plates. The inoculated 96-well plates were incubated at 35 °C for 18 h. MIC was defined as the lowest concentrations that prevented visible growth of the bacteria.

[2] = tested on: CaEs-17 esophageal cancer cell line; assay: MTT antiproliferative assay; type: cell-based; conditions: Homo sapiens, read-out: IC50 CaEs-17
Description: (§3) The antiproliferative activity of 9a–i against four human cancer cell lines K562 leukemia cell line, MGC-803 gastric cancer cell line, CaEs-17 esophageal cancer cell line, and Bel-7402 hepatoma cell line, and human normal liver cells L-02 was evaluated by MTT assay (Table 2).
(§4) MTT assay was developed to monitor mammalian cell survival and proliferation in vitro [32]. CaEs-17 cells (K562, Bel-7402 and MGC-803 cells) from American Type Culture Collection (ATCC, Manassas, VA, USA) were cultivated in RPMI-1640 medium supplemented with 5% fetal bovine serum (v/v), 100 U/mL penicillin, and […] streptomycin. Cells (5 × 10^4 cell/mL) at the log phase of their growth cycle were added to each well of a 96-well plate (100 µL/well) and incubated for 24 h at 37 °C in a humidified atmosphere of 5% CO2. Then, cells were treated with or without test compounds in different concentrations. After 72 h, 5 mg/mL MTT solution (20 µL per well) was added. Cells were incubated at 37 °C. After 4 h, MTT solution was removed and DMSO was added to each well (150 µL). Ten minutes later at room temperature, the optical density (OD) values were measured at the wavelength of 490 nm on a Microplate Reader NO. 550 (BIO-RAD Instruments Inc., Hercules, CA, USA). In this experiment, 10 µg/mL of Taxol was used as the positive control and 0.1% DMSO was used as the negative reference.

[3] = tested on: Bacillus subtilis (CMCC 63501); assay: Antibacterial assay, microbroth dilution MIC; type: cell-based; conditions: for MIC: Bacillus subtilis, read-out: MIC B. subtilis
Description: as §1, §2

[4] = tested on: Staphylococcus aureus (ATCC 29213); assay: Antibacterial assay, microbroth dilution MIC; type: cell-based; conditions: for MIC: Staphylococcus aureus, read-out: MIC S. aureus
Description: as §1, §2

[5] = tested on: Escherichia coli (ATCC 25922); assay: Antibacterial assay, microbroth dilution MIC; type: cell-based; conditions: for MIC: Escherichia coli, read-out: MIC E. coli
Description: as §1, §2

[6] = tested on: MGC-803 gastric cancer cell line; assay: MTT antiproliferative assay; type: cell-based, human; conditions: read-out: IC50 MGC-803
Description: as §3, §4

[7] = tested on: Bel-7402 hepatoma cell line; assay: MTT antiproliferative assay; type: cell-based, human; conditions: for IC50: Homo sapiens, read-out: IC50 Bel-7402; for SI (selectivity index): SI = IC50, L-02/IC50, Bel-7402
Description: as §3, §4

K562 leukemia cell line = assay: MTT antiproliferative assay; type: cell-based, human; conditions: read-out: IC50 K562
Description: as §3, §4

[8] = tested on: human normal liver cells L-02; assay: MTT assay on normal cells; type: cell-based; conditions: 72 h, read-out: IC50 L-02
Description: as §3, §4

[9] = CaEs17, MTT, 72 h, mean ± SD of three experiments
[10] = Homo sapiens, MGC-803, 72 h, MTT, 72 h, mean ± SD of three experiments
[11] = Bel-7402, MTT, 72 h, mean ± SD of three experiments
[12] = Homo sapiens, K562, 72 h, MTT, 72 h, mean ± SD of three experiments
[13] = MTT, normal liver cells, mean ± SD of three experiments
[14] = MTT, 72 h, mean ± SD of three experiments

Row | Structure (SMILES) | MIC ([1]; ATCC10231, 35 °C, 18 h) | IC50 [2, 9] | melting point | MIC ([3]; CMCC63501, 35 °C, 18 h) | MIC ([4]; ATCC29213, 35 °C, 18 h) | MIC ([5]; ATCC25922, 35 °C, 18 h) | IC50 [6, 10] | IC50 [7, 11] | SI (selectivity index) [7] | IC50 (K562 leukemia cell line; [12]) | IC50 [8, 13] | other results
1 | OC(Cn1cncn1)(Cn1cncn1)c1ccc(F)cc1F [Fluconazole, reference compound] | 4 µg/mL (≈ 13.1 µM) | – | – | – | – | – | – | – | – | – | – | –
2 | C=C1C(=O)[C@@]23C(=O)O[C@H]4CCC(C)(C)[C@H]5[C@H](O)OC[C@@]45[C@@H]2CC[C@@H]1[C@H]3OC(=O)CCC(=O)OCCCCOc1no[n+]([O-])c1S(=O)(=O)c1ccccc1 [Compound 9g] | > 100 µg/mL | 5130 ± 220 nM | 85 to 87 °C | 16 µg/mL (≈ 21.1 µM) | 16 µg/mL (≈ 21.1 µM) | > 100 µg/mL | 1430 ± 80 nM | 1270 ± 110 nM | 9.1 | 2260 ± 80 nM | 11600 ± 390 nM | –
3 | O=C(N[C@H](CO)[C@H](O)c1ccc([N+](=O)[O-])cc1)C(Cl)Cl [Chloromycetin, reference compound] | – | – | – | – | – | – | – | – | – | – | – | MIC B. subtilis ([3]; 35 °C, 18 h): 8 µg/mL (≈ 24.8 µM); MIC S. aureus ([4]; 35 °C, 18 h): 4 µg/mL (≈ 12.4 µM); MIC E. coli ([5]; 35 °C, 18 h): 4 µg/mL (≈ 12.4 µM)
4 | C=C1C(=O)[C@@]23C(=O)O[C@H]4CCC(C)(C)[C@H]5[C@H](O)OC[C@@]45[C@@H]2CC[C@@H]1[C@H]3OC(=O)c1ccccc1C(=O)OCCOc1no[n+]([O-])c1S(=O)(=O)c1ccccc1 [Compound 9c] | > 100 µg/mL | 3760 ± 370 nM | 137 to 139 °C | 4 µg/mL (≈ 5.14 µM) | 8 µg/mL (≈ 10.3 µM) | > 100 µg/mL | 1340 ± 130 nM | 830 ± 60 nM | 23.9 | 1930 ± 100 nM | 19870 ± 180 nM | –
5 | C=C1C(=O)[C@]23[C@H](O)[C@H]1CC[C@H]2[C@@]12CO[C@]3(O)[C@@H](O)[C@@H]1C(C)(C)CC[C@@H]2O [Compound 7, oridonin, reference compound] | > 100 µg/mL | 11000 ± 1020 nM | – | 32 µg/mL (≈ 87.8 µM) | 32 µg/mL (≈ 87.8 µM) | > 100 µg/mL | 5690 ± 390 nM | 7480 ± 530 nM | 2.4 | 4760 ± 320 nM | 18300 ± 810 nM | –
6 | C=C1C(=O)[C@@]23C(=O)O[C@H]4CCC(C)(C)[C@H]5[C@H](O)OC[C@@]45[C@@H]2CC[C@@H]1[C@H]3OC(=O)CCC(=O)OCCOc1no[n+]([O-])c1S(=O)(=O)c1ccccc1 [Compound 9a] | > 100 µg/mL | 5120 ± 420 nM | 92 to 94 °C | 64 µg/mL (≈ 87.6 µM) | 16 µg/mL (≈ 21.9 µM) | > 100 µg/mL | 1830 ± 160 nM | 1330 ± 100 nM | 7.7 | 2470 ± 160 nM | 10400 ± 610 nM | –
7 | C=C1C(=O)[C@@]23C(=O)O[C@H]4CCC(C)(C)[C@H]5[C@H](O)OC[C@@]45[C@@H]2CC[C@@H]1[C@H]3OC(=O)CCCC(=O)OCCOc1no[n+]([O-])c1S(=O)(=O)c1ccccc1 [Compound 9b] | > 100 µg/mL | 4830 ± 300 nM | 88 to 89 °C | 2 µg/mL (≈ 2.69 µM) | 4 µg/mL (≈ 5.37 µM) | > 100 µg/mL | 1620 ± 80 nM | 1200 ± 80 nM | 13.9 | 2310 ± 210 nM | 16700 ± 170 nM | –
8 | C=C1C(=O)[C@@]23C(=O)O[C@H]4CCC(C)(C)[C@H]5[C@H](O)OC[C@@]45[C@@H]2CC[C@@H]1[C@H]3OC(=O)CCCC(=O)OCCCCOc1no[n+]([O-])c1S(=O)(=O)c1ccccc1 [Compound 9h] | > 100 µg/mL | 4680 ± 310 nM | 78 to 80 °C | 16 µg/mL (≈ 20.7 µM) | 16 µg/mL (≈ 20.7 µM) | > 100 µg/mL | 1490 ± 110 nM | 1080 ± 50 nM | 11.1 | 2110 ± 160 nM | 12100 ± 1080 nM | –
9 | C=C1C(=O)[C@@]23C(=O)O[C@H]4CCC(C)(C)[C@H]5[C@H](O)OC[C@@]45[C@@H]2CC[C@@H]1[C@H]3OC(=O)c1ccccc1C(=O)OCCCCOc1no[n+]([O-])c1S(=O)(=O)c1ccccc1 [Compound 9i] | > 100 µg/mL | 3820 ± 190 nM | 126 to 128 °C | 2 µg/mL (≈ 2.48 µM) | 16 µg/mL (≈ 19.8 µM) | > 100 µg/mL | 1860 nM | 780 ± 40 nM | 18.6 | 1250 nM | 14600 ± 860 nM | IC50 [6, 14]: 1250 ± 100 nM; IC50 (K562 leukemia cell line; [14]): 1860 ± 180 nM
10 | C=C1C(=O)[C@@]23C(=O)O[C@H]4CCC(C)(C)[C@H]5[C@H](O)OC[C@@]45[C@@H]2CC[C@@H]1[C@H]3O [Compound 8] | – | – | – | – | – | – | – | – | – | – | – | MIC ([1]; ATCC10231, 18 h): > 100 µg/mL; IC50 ([2]; CaEs17, 72 h): 30800 ± 2090 nM; MIC ([3]; CMCC63501, 18 h): > 100 µg/mL; MIC ([4]; ATCC29213, 18 h): > 100 µg/mL; MIC ([5]; ATCC25922, 18 h): > 100 µg/mL; IC50 ([6]; Homo sapiens, MGC-803, 72 h): 14200 ± 1220 nM; IC50 ([7]; Bel-7402, 72 h): 33000 ± 2190 nM; IC50 (K562 leukemia cell line; Homo sapiens, K562, 72 h): 8110 ± 760 nM; IC50 [8]: 24400 ± 1590 nM
11 | C=C1C(=O)[C@@]23C(=O)O[C@H]4CCC(C)(C)[C@H]5[C@H](O)OC[C@@]45[C@@H]2CC[C@@H]1[C@H]3OC(=O)CCC(=O)OCCCOc1no[n+]([O-])c1S(=O)(=O)c1ccccc1 [Compound 9d] | > 100 µg/mL | 4980 ± 420 nM | 110 to 112 °C | 2 µg/mL (≈ 2.69 µM) | 4 µg/mL (≈ 5.37 µM) | > 100 µg/mL | 1500 ± 100 nM | 1230 ± 80 nM | 11.0 | 2150 ± 120 nM | 13600 ± 1310 nM | –
12 | CC(=O)O[C@H]1C(=O)[C@@]2(C)[C@H]([C@H](OC(=O)c3ccccc3)[C@]3(O)C[C@H](OC(=O)[C@H](O)[C@@H](NC(=O)c4ccccc4)c4ccccc4)C(C)=C1C3(C)C)[C@]1(OC(C)=O)CO[C@@H]1C[C@@H]2O [Taxol, reference compound] | – | 430 ± 30 nM | – | – | – | – | 850 ± 60 nM | 1890 ± 90 nM | 1.9 | 410 ± 20 nM | 3730 ± 170 nM | –
13 | C=C1C(=O)[C@@]23C(=O)O[C@H]4CCC(C)(C)[C@H]5[C@H](O)OC[C@@]45[C@@H]2CC[C@@H]1[C@H]3OC(=O)CCCC(=O)OCCCOc1no[n+]([O-])c1S(=O)(=O)c1ccccc1 [Compound 9e] | > 100 µg/mL | 4270 ± 350 nM | 82 to 84 °C | 16 µg/mL (≈ 21.1 µM) | 16 µg/mL (≈ 21.1 µM) | > 100 µg/mL | 1290 ± 120 nM | 920 ± 50 nM | 18.6 | 1920 ± 90 nM | 17200 ± 770 nM | –
